Converted amounts (≈) assume the structure as drawn. The source made the active and inactive calls. The calls are words filed in the database; no cut-off is given here.
Columns and labels:
[1] = Kinetic solubility of compound at pH 6.5 phosphate buffer by nephelometry; assay type: physicochemical; conditions: read-out: Kinetic_solubility
[2] = Protein binding in human plasma by HPLC-MS analysis; assay type: ADME, cell-free; conditions: read-out: PPB (converted)
Trypanosoma cruzi [3] = experiment: Antitrypanosomal activity against Trypanosoma cruzi Tulahuen strain trypomastigotes infected in rat H9c2 cells incubated for 72 hrs by DRAQ5 DNA dye based imaging analysis; assay type: functional, organism-based; conditions: H9c2, 72 h
[4] = Intrinsic clearance in human liver microsomes assessed per mg protein measured after 60 mins in presence of NADPH generating system by LC-MS analysis; assay type: ADME, Microsome; conditions: read-out: CLH
[5] = Metabolic stability in human liver microsomes assessed as degradation half-life measured after 60 mins in presence of NADPH generating system by LC-MS analysis; assay type: ADME, Microsome; conditions: read-out: T50
[6] = Kinetic solubility of compound at pH 2 by nephelometry; assay type: physicochemical; conditions: buffer, read-out: Kinetic_solubility
[7] = Partition coefficient, log D of compound at pH 7.4 by HPLC; assay type: physicochemical; conditions: octanol/water
L6 = experiment: Cytotoxicity against rat L6 cells assessed as reduction in cell viability measured after 72 hrs by alamar blue dye based fluorimetry analysis; conditions: L6, 72 h
Leishmania donovani = experiment: Antileishmanial activity against Leishmania donovani MHOM/ET/67/L82 amastigotes measured after 72 hrs by alamar blue dye based fluorimetry analysis; assay type: functional, organism-based; conditions: MHOM/ET/67/L82, 72 h
[8] = tested on: Trypanosoma brucei rhodesiense; experiment: Antitrypanosomal activity against Trypanosoma brucei rhodesiense STIB900 trypomastigotes incubated for 72 hrs by resazurin dye based fluorescence assay; assay type: functional, organism-based; conditions: STIB900, 72 h
Trypanosoma cruzi [9] = experiment: Antitrypanosomal activity against Trypanosoma cruzi Tulahuen C4 strain amastigotes infected in rat L6 cells measured after 96 hrs by inverted microscopy analysis; assay type: functional, organism-based; conditions: Tulahuen C4, L6, 96 h
[10] = Metabolic stability in mouse liver microsomes assessed as degradation half-life measured after 60 mins in presence of NADPH generating system by LC-MS analysis; assay type: ADME, Microsome; conditions: read-out: T50
[11] = Intrinsic clearance in mouse liver microsomes assessed per mg protein measured after 60 mins in presence of NADPH generating system by LC-MS analysis; assay type: ADME, Microsome; conditions: read-out: CLH
[12] = Selectivity index, ratio of IC50 for cytotoxicity against rat H9c2 cells assessed as reduction in cell viability to IC50 for antitrypanosomal against Trypanosoma cruzi Tulahuen trypomastigotes infected in rat H9c2 cells; assay type: toxicity, cell-based; conditions: read-out: Ratio IC50
[13] = Selectivity index, ratio of IC50 for cytotoxicity against human HEK293 cells assessed as reduction in cell viability to IC50 for antitrypanosomal activity against Trypanosoma brucei brucei Lister 427 blood stream form; assay type: toxicity, cell-based; conditions: read-out: Ratio IC50
[14] = tested on: Trypanosoma brucei brucei; experiment: Antitrypanosomal activity against Trypanosoma brucei brucei Lister 427 strain blood stream forms incubated for 48 hrs by resazurin dye based fluorescence assay; assay type: functional, organism-based; conditions: Lister 427, 48 h
[15] = Metabolic stability in human liver microsomes assessed as half-life measured after 60 mins in presence of NADPH generating system by LC-MS analysis; assay type: ADME, Microsome
[16] = Dose normalized Cmax in Balb/c mouse at 50 mg/kg, po administered via gavage; assay type: ADME, organism-based; conditions: in vivo
[17] = Tmax in Balb/c mouse at 50 mg/kg, po administered via gavage in presence of 1-aminobenzotriazole; assay type: ADME, organism-based; conditions: in vivo
[18] = Toxicity in Balb/c mouse infected with Trypanosoma cruzi Brazil trypomastigotes coexpressing luciferase assessed as low resistance to handling at 50 mg/kg, po BID administered for 5 days; assay type: organism-based; conditions: in vivo, 120 h, time 5 day
[19] = Cmax in Balb/c mouse at 50 mg/kg, po administered via gavage; assay type: ADME, organism-based; set-up: route oral, dose 50 mg/kg; conditions: in vivo
[20] = Dose normalized AUClast in Balb/c mouse at 50 mg/kg, po administered via gavage; assay type: ADME, organism-based; conditions: in vivo
[21] = Toxicity in Balb/c mouse infected with Trypanosoma cruzi Brazil trypomastigotes coexpressing luciferase assessed as hunched-back posture at 50 mg/kg, po BID administered for 5 days; assay type: organism-based; conditions: in vivo, 120 h, time 5 day
Trypanosoma cruzi [22] = experiment: Antitrypanosomal activity against Trypanosoma cruzi Brazil trypomastigotes coexpressing luciferase infected in BALB/c mouse model assessed as reduction in parasite load at 50 mg/kg, po BID administered for 5 days measured after 10 days; assay type: functional, organism-based; conditions: time 10.0 day
[23] = Cmax in Balb/c mouse at 50 mg/kg, po administered via gavage in presence of 1-aminobenzotriazole; assay type: ADME, organism-based; set-up: route oral, dose 50 mg/kg; conditions: in vivo
[24] = Toxicity in Balb/c mouse infected with Trypanosoma cruzi Brazil trypomastigotes coexpressing luciferase assessed as ruffled fur at 50 mg/kg, po BID administered for 5 days; assay type: organism-based; conditions: in vivo, 120 h, time 5 day
Trypanosoma cruzi [25] = experiment: Antitrypanosomal activity against Trypanosoma cruzi Brazil trypomastigotes coexpressing luciferase infected in BALB/c mouse model assessed as reduction in parasite load at 50 mg/kg, po BID administered for 5 days followed by cyclophosphamide addition 30 days post last dose and measured 10 days post cyclophosphamide addition; assay type: functional, organism-based; conditions: time 45.0 day
[26] = AUClast (0 to t) in Balb/c mouse at 50 mg/kg, po administered via gavage; assay type: ADME, organism-based; set-up: time 0 - last, route oral, dose 50 mg/kg; conditions: in vivo
[27] = Dose normalized Cmax in Balb/c mouse at 50 mg/kg, po administered via gavage in presence of 1-aminobenzotriazole; assay type: ADME, organism-based; conditions: in vivo
[28] = Dose normalized AUClast in Balb/c mouse at 50 mg/kg, po administered via gavage in presence of 1-aminobenzotriazole; assay type: ADME, organism-based; conditions: in vivo
[29] = AUClast (0 to t) in Balb/c mouse at 50 mg/kg, po administered via gavage in presence of 1-aminobenzotriazole; assay type: ADME, organism-based; set-up: route oral, time 0 - last, dose 50 mg/kg; conditions: in vivo
[30] = Tmax in Balb/c mouse at 50 mg/kg, po administered via gavage; assay type: ADME, organism-based; conditions: in vivo

Row | IC50 (Trypanosoma cruzi [3]) [nM] | microsomal CLint [4] [µL/min/mg] | half-life [5] [min] | half-life [10] [min] | microsomal CLint [11] [µL/min/mg] | IC50 [14] [nM] | Compound | selectivity ratio [12] | selectivity ratio [13] | further results
1 | 39 | 244 | 7 |  |  |  | O=C(NCCc1csc(-c2ccccc2)n1)N1CCCCC1 |  |  | solubility kinetic [1]: 25 µg/mL (≈ 79.3 µM); fraction unbound [2]: 0.1; solubility kinetic [6]: 50 µg/mL (≈ 159 µM); logD [7]: 3.2
2 |  |  |  |  |  |  | O=C(NCCc1csc(-c2ccccc2)n1)c1ccccc1F |  |  | IC50 (L6): 79000 nM; IC50 (Leishmania donovani): 11000 nM; IC50 [8]: 420 nM; IC50 (Trypanosoma cruzi [9]): 1100 nM
3 | 30 | 160 | 11 | < 2 | > 1600 | 24 | O=C(NCCc1csc(-c2ccc(F)cc2)n1)N1CCCCC1 | > 1580 | 431 | 
4 | 10 | 439 | 4 | < 2 | > 1600 | 16 | O=C(NCCc1csc(-c2ccccc2F)n1)N1CCCCC1 | > 3980 | 650 | 
5 | 320 | 177 | 10 |  |  |  | O=C(NCCc1csc(-c2ccccc2)n1)N1CCCC1 |  |  | solubility kinetic [1]: 50 µg/mL (≈ 166 µM); fraction unbound [2]: 0.14; IC50 (L6): 144000 nM; IC50 (Leishmania donovani): 17000 nM; IC50 [8]: 46 nM; IC50 (Trypanosoma cruzi [9]): 96 nM; solubility kinetic [6]: > 100 µg/mL; logD [7]: 2.8
6 | 250 | 177 |  |  |  |  | CCN(CC)C(=O)NCCc1csc(-c2ccc(F)cc2F)n1 | > 199 |  | half-life [15]: 8 min

Row | Compound | IC50 (Trypanosoma cruzi [3]) [nM] | microsomal CLint [4] [µL/min/mg] | half-life [5] [min] | half-life [10] [min] | microsomal CLint [11] [µL/min/mg] | IC50 [14] [nM] | selectivity ratio [12] | selectivity ratio [13] | further results
7 | O=C(NCCc1csc(-c2ccc(F)cc2F)n1)N1CCCCC1 | 20 | 225 | 8 | < 2 | > 1600 | 24 | > 3160 | 433 | half-life [15]: 5 min; Cmax/dose [16]: 4.3 kg·ng/mL/mg; Tmax [17]: 30 min; Activity [18]: Toxic; Cmax [19]: 212 ng/mL; AUClast/dose [20]: 2.54 ng·h/mL/mg/kg; Activity [21]: Toxic; Activity (Trypanosoma cruzi [22]): Active; Cmax [23]: 7090 ng/mL; Activity [24]: Toxic; Activity (Trypanosoma cruzi [25]): inactive; AUC(0-t) [26]: 127 ng·h/mL; Cmax/dose [27]: 142 kg·ng/mL/mg; AUClast/dose [28]: 295 ng·h/mL/mg/kg; AUC(0-t) [29]: 14800 ng·h/mL; Tmax [30]: 15 min
